Values after ≈ are worked out from the molar mass of the structure shown.
Tests used:
[1] = tested on: Escherichia coli; assay: Antibiofilm activity against Escherichia coli 0157:H7 at 6.25 uM incubated for 24 hr by crystal violet staining based assay relative to control; assay type: functional
[2] = Inhibition of Escherichia coli 0157:H7 AI-2 incubated for 3.5 hrs in dark condition by microplate reader analysis
[3] = tested on: Escherichia coli; assay: Antibiofilm activity against Escherichia coli 0157:H7 at 200 uM incubated for 24 hr by crystal violet staining based assay relative to control; assay type: functional
[4] = tested on: Clostridioides difficile; assay: Antibacterial activity against Clostridium difficile ATCC 43255 assessed as bacterial growth inhibition incubated for 24 hrs by two-fold serial dilution method; assay type: functional
[5] = tested on: Staphylococcus aureus; assay: Antibiofilm activity against Staphylococcus aureus 6538 incubated for 24 hr by crystal violet staining based assay; assay type: functional
[6] = tested on: Bacillus subtilis; assay: Bactericidal activity against Bacillus subtilis as by CLSI-based micro broth dilution method; assay type: functional
[7] = tested on: Staphylococcus aureus; assay: Antibiofilm activity against Staphylococcus aureus BAA44 at 0.78 ug/ml incubated for 24 hr by crystal violet staining based assay relative to control; assay type: functional
[8] = tested on: Staphylococcus aureus; assay: Antibacterial activity against Staphylococcus aureus ATCC 29213 assessed as bacterial growth inhibition incubated for 18 hrs by CLSI-based broth microdilution method; assay type: functional
[9] = tested on: Staphylococcus aureus; assay: Antibiofilm activity against Staphylococcus aureus BAA44 incubated for 24 hr by crystal violet staining based assay; assay type: functional
[10] = tested on: Staphylococcus aureus; assay: Antibiofilm activity against Staphylococcus aureus 6538 at 0.78 ug/ml incubated for 24 hr by crystal violet staining based assay relative to control; assay type: functional
[11] = tested on: Staphylococcus aureus; assay: Antibacterial activity against Staphylococcus aureus MSSA1 assessed bacterial growth inhibition by CLSI-based broth microdilution method; assay type: functional
[12] = Inhibition of FAS1 in Mycobacterium smegmatis mc2 155 transfected with pVV16 vector by BCA assay; design: species or system Mycolicibacterium smegmatis
[13] = Inhibition of His-tagged Escherichia coli ANS1 FabG using acetoacetyl-CoA as substrate by spectrometric analysis
[14] = tested on: Staphylococcus xylosus; assay: Antibacterial activity against Staphylococcus xylosus ATCC 700404 assessed bacterial growth inhibition incubated for 24 hrs by Broth microdilution method; assay type: functional
[15] = Inhibition of FAS2 in Mycobacterium smegmatis mc2 155 transfected with pVV16 vector expressing Rv0636 by BCA assay; design: species or system Mycolicibacterium smegmatis
[16] = Inhibition of FAS1 in Mycobacterium smegmatis mc2 155 transfected with pVV16 vector expressing Rv0636 by BCA assay; design: species or system Mycolicibacterium smegmatis
[17] = Inhibition of His-tagged Escherichia coli ANS1 Fab1 using trans-2-octanoyl-N-acetylcysteamine as substrate by spectrometric analysis
[18] = tested on: Staphylococcus xylosus; assay: Inhibition of Staphylococcus xylosus ATCC 700404 IGPD at 40 ug/ml relative to control; details: dose 40.0 µg/ml
[19] = tested on: Staphylococcus xylosus; assay: Antibiofilm activity against Staphylococcus xylosus ATCC 700404 at 20 ug/ml incubated for 24 hr by crystal violet staining based assay relative to control; assay type: functional
[20] = tested on: Escherichia coli; assay: Antibacterial activity against Escherichia coli ANS1 assessed as bacterial growth inhibition incubated for 20 hrs by broth microdilution method; assay type: functional
[21] = Inhibition of FAS2 in Mycobacterium smegmatis mc2 155 transfected with pVV16 vector by BCA assay; design: species or system Mycolicibacterium smegmatis
[22] = tested on: Cutibacterium acnes; assay: Antibacterial activity against Propionibacterium acnes KCTC3220 assessed as bacterial growth inhibition incubated for 48 hrs by broth microdilution assay; assay type: functional
[23] = tested on: Listeria monocytogenes; assay: Antibiofilm activity against Listeria monocytogenes CMCC 54004 at 20 ug/ml by crystal violet staining based assay relative to control; assay type: functional
[24] = tested on: Streptococcus pyogenes; assay: Antibacterial activity against Streptococcus pyogenes ATCC 19615 assessed bacterial growth inhibition incubated for 24 hrs by double dilution method; assay type: functional
[25] = tested on: Micrococcus luteus; assay: Antibacterial activity against Micrococcus luteus assessed bacterial growth inhibition by CLSI-based micro broth dilution method; assay type: functional
[26] = tested on: Staphylococcus aureus; assay: Inhibition of Staphylococcus aureus ATCC 6538 LDH at 7.81 ug/ml relative to control; details: dose 7.81 µg/ml
[27] = tested on: Mycobacterium tuberculosis; assay: Antitubercular activity against XDR Mycobacterium tuberculosis X59 assessed as bacterial growth inhibition measured for 9 days; assay type: functional; details: X59, 216 h, time 9 day
[28] = tested on: Staphylococcus aureus; assay: Antibacterial activity against Staphylococcus aureus Newman assessed as bacterial growth inhibition by CLSI-based broth micro-dilution method; assay type: functional
[29] = tested on: Streptococcus pyogenes; assay: Antibiofilm activity against Streptococcus pyogenes ATCC 19615 at 23.4 ug/ml incubated for 1 hr by crystal violet staining based assay relative to control; assay type: functional; details: dose 23.4 µg/ml
[30] = tested on: Staphylococcus aureus; assay: Antibacterial activity against Staphylococcus aureus ATCC 25923 assessed as bacterial growth inhibition by CLSI-based broth micro-dilution method; assay type: functional
[31] = tested on: Staphylococcus aureus; assay: Antibiofilm activity against Staphylococcus aureus SA1199B incubated for 18 to 24 hrs by broth microdilution method; assay type: functional; details: time 18-24 hrs
[32] = tested on: Staphylococcus aureus; assay: Antibiofilm activity against Staphylococcus aureus RN4220 at 1 ug/ml incubated for 18 to 24 hrs by broth microdilution method relative to control; assay type: functional; details: time 18-24 hrs
[33] = tested on: Staphylococcus aureus; assay: Antibiofilm activity against Staphylococcus aureus RN4220 incubated for 18 to 24 hrs by broth microdilution method; assay type: functional; details: time 18-24 hrs
[34] = tested on: Staphylococcus aureus; assay: Antibacterial activity against Staphylococcus aureus BAA 1707 assessed as bacterial growth inhibition by CLSI-based broth micro-dilution method; assay type: functional
[35] = tested on: Candida albicans; assay: Inhibition of Candida albicans SC5314 hyphal transition at 74.55 ug/ml incubated for 24 hrs relative to control; assay type: functional
[36] = tested on: Staphylococcus aureus; assay: Antibacterial activity against Staphylococcus aureus ATCC 29213 assessed as bacterial growth inhibition by CLSI-based broth micro-dilution method; assay type: functional
[37] = tested on: Staphylococcus aureus; assay: Antibiofilm activity against Staphylococcus aureus SA1199B at 128 ug/ml incubated for 18 to 24 hrs by broth microdilution method relative to control; assay type: functional; details: time 18-24 hrs
[38] = biological target: T1, Sortase B (Staphylococcus aureus, UniProt Q2FZE3); assay: Inhibition of Staphylococcus aureus sortase b transpeptidation expressed in Escherichia coli BL21 (DE3) cells using Fluorescent peptide as substrate at 16 ug/ml preincubated for 30 mins followed by substrate addition and measured for 1 hr by FRET assay
T1 sequence (Q2FZE3 whole entry): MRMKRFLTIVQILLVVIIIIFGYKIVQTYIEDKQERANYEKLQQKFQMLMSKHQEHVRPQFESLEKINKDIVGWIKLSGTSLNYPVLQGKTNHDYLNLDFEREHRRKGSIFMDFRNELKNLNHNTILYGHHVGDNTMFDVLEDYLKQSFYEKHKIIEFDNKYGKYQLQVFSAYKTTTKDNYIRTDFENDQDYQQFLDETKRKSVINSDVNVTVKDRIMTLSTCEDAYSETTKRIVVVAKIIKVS

[39] = tested on: Candida albicans; assay: Antibiofilm activity against Candida albicans ATCC SC5314 at 74.55 ug/ml incubated for 24 hr by crystal violet staining based assay relative to control; assay type: functional
[40] = tested on: Staphylococcus aureus; assay: Inhibition of Staphylococcus aureus ATCC 6538 IDH at 7.81 ug/ml relative to control; details: dose 7.81 µg/ml
[41] = tested on: Cutibacterium acnes; assay: Antibacterial activity against Propionibacterium acnes KCTC5527 assessed as bacterial growth inhibition incubated for 48 hrs by broth microdilution assay; assay type: functional
[42] = tested on: Mycobacterium tuberculosis; assay: Antitubercular activity against Mycobacterium tuberculosis H37Rv assessed as bacterial growth inhibition measured for 9 days; assay type: functional; details: 216 h, time 9 day
[43] = tested on: Staphylococcus aureus; assay: Inhibition of Staphylococcus aureus ATCC 6538 Catalase at 7.81 ug/ml relative to control; details: dose 7.81 µg/ml
[44] = tested on: Cutibacterium acnes; assay: Antibacterial activity against Propionibacterium acnes KCTC5933 assessed as bacterial growth inhibition incubated for 48 hrs by broth microdilution assay; assay type: functional
[45] = tested on: Staphylococcus aureus; assay: Antibacterial activity against Staphylococcus aureus BAA 1717 assessed as bacterial growth inhibition by CLSI-based broth micro-dilution method; assay type: functional
[46] = tested on: Staphylococcus aureus; assay: Antibacterial activity against Staphylococcus aureus ATCC 6538 assessed bacterial growth inhibition incubated for 24 hrs by CLSI-based broth dilution method; assay type: functional
[47] = tested on: Escherichia coli; assay: Antibiofilm activity against Escherichia coli 0157:H7 at 25 ug/ml incubated for 10 hrs by crystal violet staining based assay relative to control; assay type: functional
[48] = tested on: Candida albicans; assay: Antifungal activity against Candida albicans SC5314 assessed as fungal growth inhibition incubated for 48 hrs by CLSI-based two-fold serial dilution method; assay type: functional
[49] = tested on: Cutibacterium acnes; assay: Antibacterial activity against Propionibacterium acnes KCTC3314 assessed as bacterial growth inhibition incubated for 48 hrs by broth microdilution assay; assay type: functional
[50] = tested on: Klebsiella pneumoniae; assay: Antibacterial activity against Klebsiella pneumoniae assessed bacterial growth inhibition by CLSI-based micro broth dilution method; assay type: functional
[51] = tested on: Mycobacterium tuberculosis; assay: Antitubercular activity against XDR Mycobacterium tuberculosis X24 assessed as bacterial growth inhibition measured for 9 days; assay type: functional; details: X24, 216 h, time 9 day
[52] = tested on: Staphylococcus aureus; assay: Antibiofilm activity against Staphylococcus aureus RN4220 at 8 to 256 ug/ml incubated for 18 to 24 hrs by broth microdilution method relative to control; assay type: functional; details: dose 8-256 µg/ml; time 18-24 hrs; at 8 to 256 µg/mL
[53] = tested on: Candida albicans; assay: Antifungal activity against Candida albicans SC5314 assessed as fungal growth inhibition incubated for 48 hrs by CLSI protocol based assay; assay type: functional
[54] = tested on: Escherichia coli; assay: Antibiofilm activity against Escherichia coli 0157:H7 at 50 ug/ml incubated for 10 hrs by crystal violet staining based assay relative to control; assay type: functional
[55] = tested on: Pectobacterium brasiliense; assay: Antibiofilm activity against Pectobacterium brasiliense Pb1692 at 0.4 ug/ml incubated for 72 hr by crystal violet staining based assay relative to control; assay type: functional
[56] = tested on: Staphylococcus aureus; assay: Antibacterial activity against Staphylococcus aureus 8325-4 assessed as bacterial growth inhibition by CLSI-based broth micro-dilution method; assay type: functional

Structure (SMILES): COc1cc(O)ccc1/C=C/C(=O)c1ccc(O)cc1 [ECHINATIN]
- inhibition at 6.25 µM [1]: 40%
- IC50 [2]: 21.7 µM
- inhibition at 200 µM [3]: 71.5%

Structure (SMILES): CC(C)=CCc1c(O)ccc(C(=O)/C=C/c2ccc(O)cc2)c1O [ISOBAVACHALCONE]
- MIC [4]: 4 µg/mL (≈ 12.3 µM)
- MBIC [5]: 0.78 µg/mL
- MBC [6]: 4 µg/mL (≈ 12.3 µM)
- inhibition at 0.78 µg/mL [7]: 80%
- MIC [8]: 4 µg/mL (≈ 12.3 µM)
- MBIC [9]: 0.78 µg/mL
- inhibition at 0.78 µg/mL [10]: 75%
- MIC [11]: 0.5 µg/mL (≈ 1.54 µM)

Structure (SMILES): O=C(/C=C/c1ccc(O)cc1)c1ccc(O)cc1O [ISOLIQUIRITIGENIN]
- IC50 [12]: 96 µg/mL (≈ 375 µM)
- IC50 [13]: 20 µM
- MIC [14]: 80 µg/mL (≈ 312 µM)
- IC50 [15]: 17 µg/mL (≈ 66.3 µM)
- IC50 [16]: 96 µg/mL (≈ 375 µM)
- IC50 [17]: 40 µM
- inhibition [18]: 60%
- inhibition at 20 µg/mL [19]: 45%
- MIC [20]: 25 µM (≈ 6.41 µg/mL)
- IC50 [21]: 7 µg/mL (≈ 27.3 µM)

Structure (SMILES): O=C(CCc1ccc(O)cc1)c1c(O)cc(O)cc1O [PHLORETIN]
- MIC [22]: 16 µM (≈ 4.39 µg/mL)
- inhibition at 20 µg/mL [23]: 60%
- MIC [24]: 46.8 µg/mL (≈ 171 µM)
- MIC50 [25]: 230 µM (≈ 63.1 µg/mL)
- inhibition [26]: 20%
- MIC90 [27]: 182 µM (≈ 49.9 µg/mL)
- IC50 [2]: 62.5 µM
- MIC [28]: 128 µg/mL (≈ 467 µM)
- inhibition (INH) [29]: 46.4%
- MIC [30]: 128 µg/mL (≈ 467 µM)
- MBIC50 [31]: 256 µg/mL
- inhibition at 1 µg/mL [32]: 60%
- MBIC50 [33]: 1 µg/mL
- MIC [34]: 128 µg/mL (≈ 467 µM)
- inhibition at 74.55 µg/mL [35]: 80%
- MIC [36]: 128 µg/mL (≈ 467 µM)
- inhibition at 128 µg/mL [37]: ≥ 50%
- IC50 [38]: 35.5 µM
- inhibition at 74.55 µg/mL [39]: 76%
- inhibition [40]: 60%
- MIC [41]: 16 µM (≈ 4.39 µg/mL)
- MIC90 [42]: 182 µM (≈ 49.9 µg/mL)
- inhibition [43]: 30%
- MIC [44]: 16 µM (≈ 4.39 µg/mL)
- MIC [45]: 128 µg/mL (≈ 467 µM)
- MIC [46]: 7.81 µg/mL (≈ 28.5 µM)
- inhibition at 25 µg/mL [47]: 89%
- MIC [48]: 74.5 µg/mL (≈ 272 µM)
- MIC [49]: 16 µM (≈ 4.39 µg/mL)
- MIC50 [50]: 410 µM (≈ 112 µg/mL)
- MIC90 [51]: 182 µM (≈ 49.9 µg/mL)
- inhibition (INH) [52]: >70%
- MIC [53]: 74.5 µg/mL (≈ 272 µM)
- inhibition at 50 µg/mL [54]: 93%
- inhibition at 0.4 µg/mL [55]: > 60%
- MIC [56]: 128 µg/mL (≈ 467 µM)
